# Starred links: 1 amine or outer side, 2 acyl side, 3 side chain; linkers in the order of their positions; H or OH if unused. Positions of bridges follow the written chain, without caps; N, C: chain ends. Non-standard residues stand in square brackets, D forms with d. Residues, ends and D or L forms follow the SMILES beside them. ξ: configuration not given here. *: point of attachment. X3 = O=C(O)CN1CCN(CC(=O)O)CCN(CC(=O)NCCCOCCOCCOCCCN*)CCN(CC(=O)O)CC1; Trp(5-Cl) = N[C@@H](Cc1c[nH]c2ccc(Cl)cc12)C(=O)O; Trp(5-OH) = N[C@@H](Cc1c[nH]c2ccc(O)cc12)C(=O)O; ξTrp(5-Me) = Cc1ccc2[nH]cc(CC(N)C(=O)O)c2c1; mXylylene = c1cc(C[*:1])cc(C[*:2])c1; Hydrocinnamoyl = O=C(CCc1ccccc1)*; tBuAla = CC(C)(C)C[C@H](N)C(=O)O; Pen = CC(C)(S)[C@H](N)C(=O)O; Suc = O=C(CCC(=O)[*:2])[*:1]; Tle = CC(C)(C)[C@H](N)C(=O)O; Isovaleryl = CC(C)CC(=O)*; Hexanoyl = CCCCCC(=O)*; PhAc = O=C(Cc1ccccc1)*; Bz = O=C(c1ccccc1)*; Sar = CNCC(=O)O
# Target: T1, CAIX-expressing human HT-29 colorectal cancer cells (Homo sapiens, UniProt Q16790)
# T1 construct: CAIX-expressing human HT-29 colorectal cancer cells; host or cells: HT-29 human colorectal cancer cells
# Test: FACS binding assay (IC50 determination, competition with tracer 3BP-2776 or 3BP-4149)
# Details: not given
# Method: In order to determine binding of compounds according to the present invention to CAIX-expressing cells, a FACS binding assay was established.
# CAIX-expressing human HT-29 colorectal cancer cells (DSMZ, RRID: CVCL_0320) were cultured in McCoys's 5A modified medium (Biochrom, #F1015) including 10% fetal calf serum (FCS), 2 mM L-glutamine, 100 U/ml penicillin and 100 μg/mL streptomycin. Cells were detached with Accutase (Biolegend, #423201) and washed in FACS buffer (PBS including 1% FCS). Cells were diluted in FACS buffer to a final concentration of 500.000 cells per ml. 200 μL of the cell suspension were transferred to a u-shaped non-binding 96-well plate (Greiner) and cells were washed in ice-cold FACS buffer.
# When biotinylated compounds were used an additional incubation step with 1 μg/mL APC-Streptavidin (Miltenyi; #130-106-791) in 50 μL FACS buffer for 30 minutes on ice was performed.
# Cells were washed twice with ice-cold FACS buffer and analyzed in an Attune NxT flow cytometer (Thermo Fisher). Median fluorescence intensities (MFI) of the APC/Cy5-channel were calculated by Attune NxT software. MFI values were plotted against peptide concentration and four parameter logistic (4PL) curve fitting and EC50/pEC50 or IC50/pIC50 calculations were performed using ActivityBase software.
row,Compound,IC50
1,CC(C)C[C@@H]1NC(=O)[C@H](Cc2c[nH]c3ccccc23)NC(=O)[C@H](CC(=O)O)NC(=O)CNC(=O)[C@H](CCC(=O)O)NC(=O)[C@@H](NC(=O)[C@H](Cc2ccc(O)cc2)NC(=O)[C@@H](NC(=O)c2ccccc2)C(C)C)CSCc2cccc(c2)CSC[C@@H](C(N)=O)NC(=O)[C@H](CCC(N)=O)NC(=O)[C@H](Cc2c[nH]c3ccccc23)NC(=O)[C@H]([C@@H](C)O)NC1=O [3BP-3108] (Bz-VYCEGDWLTWQC-NH2; linker 3-12 via mXylylene),< 10 nM
2,CC(C)C[C@@H]1NC(=O)[C@H](Cc2c[nH]c3ccccc23)NC(=O)[C@H](CC(=O)O)NC(=O)CNC(=O)[C@H](CCC(=O)O)NC(=O)[C@@H](NC(=O)[C@H](Cc2ccc(O)cc2)NC(=O)[C@@H](NC(=O)Cc2ccccc2)C(C)C)CSCc2cccc(c2)CSC[C@@H](C(N)=O)NC(=O)[C@H](CCC(N)=O)NC(=O)[C@H](Cc2c[nH]c3ccccc23)NC(=O)[C@H]([C@@H](C)O)NC1=O [3BP-3109] (PhAc-VYCEGDWLTWQC-NH2; linker 3-12 via mXylylene),< 10 nM

# Same assay, conditions: FACS competition on HT-29 cells, Tracer ID 3BP-2776 (10 nM, biotin-labeled), 4° C., 1 hour; read-out: pIC50 category (activity) (converted)
row,IC50,Compound
1,< 10 nM,CC(=O)N[C@H](C(=O)N[C@@H](Cc1ccc(O)cc1)C(=O)N[C@H]1CSCc2cccc(c2)CSC(C)(C)[C@@H](C(N)=O)NC(=O)[C@H](CCC(N)=O)NC(=O)[C@H](Cc2c[nH]c3ccccc23)NC(=O)[C@H]([C@@H](C)O)NC(=O)[C@H](CC(C)C)NC(=O)[C@H](Cc2c[nH]c3ccccc23)NC(=O)[C@H](CC(=O)O)NC(=O)CNC(=O)[C@H](CCC(=O)O)NC1=O)C(C)C [3BP-3064] (Ac-VYCEGDWLTWQ[Pen]-NH2; linker 3-12 via mXylylene)
2,< 10 nM,CC(=O)N[C@H](C(=O)N[C@@H](Cc1ccc(O)cc1)C(=O)N[C@H]1CSCc2cccc(c2)CSC[C@@H](C(N)=O)NC(=O)[C@H](CCC(N)=O)NC(=O)[C@H](Cc2c[nH]c3ccccc23)NC(=O)[C@H]([C@@H](C)O)NC(=O)[C@H](CC(C)(C)C)NC(=O)[C@H](Cc2c[nH]c3ccccc23)NC(=O)[C@H](CC(=O)O)NC(=O)CNC(=O)[C@H](CCC(=O)O)NC1=O)C(C)C [3BP-3065] (Ac-VYCEGDW[tBuAla]TWQC-NH2; linker 3-12 via mXylylene)
3,10 to 79.4 nM,CC(=O)N[C@H](C(=O)N[C@@H](Cc1ccc(O)cc1)C(=O)N[C@H]1CSCc2cccc(c2)CSC[C@@H](C(N)=O)NC(=O)[C@H](CCC(N)=O)NC(=O)[C@H](Cc2c[nH]c3ccccc23)NC(=O)[C@H]([C@@H](C)O)NC(=O)[C@H](C(C)(C)C)NC(=O)[C@H](Cc2c[nH]c3ccccc23)NC(=O)[C@H](CC(=O)O)NC(=O)CNC(=O)[C@H](CCC(=O)O)NC1=O)C(C)C [3BP-3066] (Ac-VYCEGDW[Tle]TWQC-NH2; linker 3-12 via mXylylene)
4,< 10 nM,CCCCCC(=O)N[C@H](C(=O)N[C@@H](Cc1ccc(O)cc1)C(=O)N[C@H]1CSCc2cccc(c2)CSC[C@@H](C(N)=O)NC(=O)[C@H](CCC(N)=O)NC(=O)[C@H](Cc2c[nH]c3ccccc23)NC(=O)[C@H]([C@@H](C)O)NC(=O)[C@H](CC(C)C)NC(=O)[C@H](Cc2c[nH]c3ccccc23)NC(=O)[C@H](CC(=O)O)NC(=O)CNC(=O)[C@H](CCC(=O)O)NC1=O)C(C)C [3BP-3107] (Hexanoyl-VYCEGDWLTWQC-NH2; linker 3-12 via mXylylene)
5,< 10 nM,CC(C)C[C@@H]1NC(=O)[C@H](Cc2c[nH]c3ccccc23)NC(=O)[C@H](CC(=O)O)NC(=O)CNC(=O)[C@H](CCC(=O)O)NC(=O)[C@@H](NC(=O)[C@H](Cc2ccc(O)cc2)NC(=O)[C@@H](NC(=O)CCc2ccccc2)C(C)C)CSCc2cccc(c2)CSC[C@@H](C(N)=O)NC(=O)[C@H](CCC(N)=O)NC(=O)[C@H](Cc2c[nH]c3ccccc23)NC(=O)[C@H]([C@@H](C)O)NC1=O [3BP-3110] (Hydrocinnamoyl-VYCEGDWLTWQC-NH2; linker 3-12 via mXylylene)
6,< 10 nM,CC(C)CC(=O)N[C@H](C(=O)N[C@@H](Cc1ccc(O)cc1)C(=O)N[C@H]1CSCc2cccc(c2)CSC[C@@H](C(N)=O)NC(=O)[C@H](CCC(N)=O)NC(=O)[C@H](Cc2c[nH]c3ccccc23)NC(=O)[C@H]([C@@H](C)O)NC(=O)[C@H](CC(C)C)NC(=O)[C@H](Cc2c[nH]c3ccccc23)NC(=O)[C@H](CC(=O)O)NC(=O)CNC(=O)[C@H](CCC(=O)O)NC1=O)C(C)C [3BP-3111] (Isovaleryl-VYCEGDWLTWQC-NH2; linker 3-12 via mXylylene)
7,< 10 nM,CC(C)C[C@@H]1NC(=O)[C@H](Cc2c[nH]c3ccccc23)NC(=O)[C@H](CC(=O)O)NC(=O)[C@@H](C)NC(=O)[C@H](CCC(=O)O)NC(=O)[C@@H](NC(=O)[C@H](Cc2ccc(O)cc2)NC(=O)[C@@H](NC(=O)CCC(=O)NCCCOCCOCCOCCCNC(=O)CN2CCN(CC(=O)O)CCN(CC(=O)O)CCN(CC(=O)O)CC2)C(C)C)CSCc2cccc(c2)CSC[C@@H](C(N)=O)NC(=O)[C@H](CCC(N)=O)NC(=O)[C@H](Cc2c[nH]c3ccccc23)NC(=O)[C@H]([C@@H](C)O)NC1=O [3BP-3270] ({X3-Suc}-VYCE[dA]DWLTWQC-NH2; linker 3-12 via mXylylene)
8,10 to 79.4 nM,CC(C)C[C@@H]1NC(=O)[C@H](Cc2c[nH]c3ccccc23)NC(=O)[C@H](CC(=O)O)NC(=O)CN(C)C(=O)[C@H](CCC(=O)O)NC(=O)[C@@H](NC(=O)[C@H](Cc2ccc(O)cc2)NC(=O)[C@@H](NC(=O)CCC(=O)NCCCOCCOCCOCCCNC(=O)CN2CCN(CC(=O)O)CCN(CC(=O)O)CCN(CC(=O)O)CC2)C(C)C)CSCc2cccc(c2)CSC[C@@H](C(N)=O)NC(=O)[C@H](C)NC(=O)[C@H](Cc2c[nH]c3ccccc23)NC(=O)[C@H]([C@@H](C)O)NC1=O [3BP-3278] ({X3-Suc}-VYCE[Sar]DWLTWAC-NH2; linker 3-12 via mXylylene)
9,< 10 nM,CC(=O)N[C@H](C(=O)N[C@@H](Cc1ccc(O)cc1)C(=O)N[C@H]1CSCc2cccc(c2)CSC[C@@H](C(N)=O)NC(=O)CNC(=O)[C@H](Cc2c[nH]c3ccccc23)NC(=O)[C@H]([C@@H](C)O)NC(=O)[C@H](CC(C)C)NC(=O)[C@H](Cc2c[nH]c3ccccc23)NC(=O)[C@H](CC(=O)O)NC(=O)[C@@H](C)NC(=O)[C@H](CCC(=O)O)NC1=O)C(C)C [3BP-3284] (Ac-VYCE[dA]DWLTWGC-NH2; linker 3-12 via mXylylene)
10,< 10 nM,CC(=O)N[C@H](C(=O)N[C@@H](Cc1ccc(O)cc1)C(=O)N[C@H]1CSCc2cccc(c2)CSC[C@@H](C(N)=O)NC(=O)[C@H](CCC(N)=O)NC(=O)[C@H](Cc2c[nH]c3ccccc23)NC(=O)[C@H]([C@@H](C)O)NC(=O)[C@H](CC(C)C)NC(=O)C(Cc2c[nH]c3ccc(C)cc23)NC(=O)[C@H](CC(=O)O)NC(=O)CN(C)C(=O)[C@H](CCC(=O)O)NC1=O)C(C)C (some centres unmarked) [3BP-3290] (Ac-VYCE[Sar]D[ξTrp(5-Me)]LTWQC-NH2; linker 3-12 via mXylylene)
11,< 10 nM,CC(=O)N[C@H](C(=O)N[C@@H](Cc1ccc(O)cc1)C(=O)N[C@H]1CSCc2cccc(c2)CSC[C@@H](C(N)=O)NC(=O)CNC(=O)[C@H](Cc2c[nH]c3ccccc23)NC(=O)[C@H]([C@@H](C)O)NC(=O)[C@H](CC(C)C)NC(=O)[C@H](Cc2c[nH]c3ccccc23)NC(=O)[C@H](CC(=O)O)NC(=O)CN(C)C(=O)[C@H](CCC(=O)O)NC1=O)C(C)C [3BP-3304] (Ac-VYCE[Sar]DWLTWGC-NH2; linker 3-12 via mXylylene)
12,< 10 nM,CC(=O)N[C@H](C(=O)N[C@@H](Cc1ccc(O)cc1)C(=O)N[C@H]1CSCc2cccc(c2)CSC[C@@H](C(N)=O)NC(=O)[C@H](CCC(N)=O)NC(=O)[C@H](Cc2c[nH]c3ccccc23)NC(=O)CNC(=O)[C@H](CC(C)C)NC(=O)[C@H](Cc2c[nH]c3ccccc23)NC(=O)[C@H](CC(=O)O)NC(=O)CN(C)C(=O)[C@H](CCC(=O)O)NC1=O)C(C)C [3BP-3307] (Ac-VYCE[Sar]DWLGWQC-NH2; linker 3-12 via mXylylene)
13,100 to 794 nM,CC(=O)N[C@H](C(=O)N[C@@H](Cc1ccc(O)cc1)C(=O)N[C@H]1CSCc2cccc(c2)CSC[C@@H](C(N)=O)NC(=O)[C@H](CCC(N)=O)NC(=O)[C@H](Cc2c[nH]c3ccccc23)NC(=O)[C@@H](C)NC(=O)[C@H](CC(C)C)NC(=O)[C@H](Cc2c[nH]c3ccccc23)NC(=O)[C@H](CC(=O)O)NC(=O)CN(C)C(=O)[C@H](CCC(=O)O)NC1=O)C(C)C [3BP-3309] (Ac-VYCE[Sar]DWL[dA]WQC-NH2; linker 3-12 via mXylylene)
14,100 to 794 nM,CC(=O)N[C@H](C(=O)N[C@@H](Cc1ccc(O)cc1)C(=O)N[C@H]1CSCc2cccc(c2)CSC[C@@H](C(N)=O)NC(=O)[C@H](CCC(N)=O)NC(=O)[C@H](Cc2c[nH]c3ccccc23)NC(=O)[C@H]([C@@H](C)O)NC(=O)[C@H](CC(C)C)NC(=O)[C@H](Cc2c[nH]c3ccc(O)cc23)NC(=O)[C@H](CC(=O)O)NC(=O)CN(C)C(=O)[C@H](CCC(=O)O)NC1=O)C(C)C [3BP-3310] (Ac-VYCE[Sar]D[Trp(5-OH)]LTWQC-NH2; linker 3-12 via mXylylene)
15,100 to 794 nM,CC(=O)N[C@H](C(=O)N[C@@H](Cc1ccc(O)cc1)C(=O)N[C@H]1CSCc2cccc(c2)CSC[C@@H](C(N)=O)NC(=O)[C@H](CCC(N)=O)NC(=O)[C@H](Cc2c[nH]c3ccc(Cl)cc23)NC(=O)[C@H]([C@@H](C)O)NC(=O)[C@H](CC(C)C)NC(=O)[C@H](Cc2c[nH]c3ccccc23)NC(=O)[C@H](CC(=O)O)NC(=O)CN(C)C(=O)[C@H](CCC(=O)O)NC1=O)C(C)C [3BP-3312] (Ac-VYCE[Sar]DWLT[Trp(5-Cl)]QC-NH2; linker 3-12 via mXylylene)

# Reference: patent US20250339569A1, “CARBONIC ANHYDRASE IX LIGANDS” (priority 2021, published 2025)
